Laboratory results taken from patent US8685436B2, “Use of hydroxyflavanones for masking bitter taste” (Symrise AG, priority 2001, dated 2014).
Structures can show the parent of a compound that is named as a salt.

Columns and labels:
[1] = Masking the bitter taste of a β-lactam antibiotic, difference testing and bitter intensity rating by 7 testers; assay type: in vivo
From the text: A solution of Faropenem Daloxate ([5R-[3(R*),5α,6α(R*)]]-6-(1-hydroxyethyl)-7-oxo-3-(tetrahydro-2-furanyl)-4-thia-1-azabicyclo[3.2.0]hept-2-ene-2-carboxylic acid (5-methyl-2-oxo-1,3-dioxol-4-yl)methyl ester, CAS No. 141702-36-5, 0.1% by weight in water, sample 1) and a mixture of Faropenem Daloxate+homoeriodictyol disodium salt (each 0.1% by weight in water, sample 2) were made up. A group of 7 testers were each given 3 samples for difference testing. 4 testers received sample 1 as a duplicate sample, 3 testers received sample 2 as a duplicate sample. The samples were tasted in differing orders. Of 7 testers, 7 correctly identified the individual sample. The average bitter intensity of sample 1 was rated 5, that of sample 2 was rated 2 (scale 1 to 5).

[2] = Debittering black tea, bitterness rated by an expert group; assay type: in vivo; conditions: Tea sample 2 + 0.05% homoeriodictyol disodium salt; scale 1 just perceptibly bitter, 5 very bitter; tea sample 2 alone rated 5
Description: Two different types of black tea were brewed using boiling water (3 g of tea to 100 ml, allowed to infuse for 3 min, filter) and were then tasted by an expert group. The bitterness was rated using a scale of 1 to 5 (1 just perceptibly bitter, 5 very bitter).

[3] = relatively high concentrations (450 ppm); cited from earlier work

## COc1cc(C2CC(=O)c3c(O)cc(O)cc3O2)ccc1O (stereo not shown) [homoeriodictyol disodium salt, 2-(4-hydroxy-3-methoxyphenyl)-5,7-dihydroxychroman-4-one]
[1]; sample 2: Faropenem Daloxate + homoeriodictyol disodium salt, each 0.1% by weight in water
  average bitter intensity (scale 1 to 5): 2
[2]
  Rating (1–5) of bitterness: 2

## Cc1oc(=O)oc1COC(=O)C1=C([C@H]2CCCO2)S[C@@H]2[C@@H]([C@@H](C)O)C(=O)N12 (relative stereo) [Faropenem Daloxate, [5R-[3(R*),5α,6α(R*)]]-6-(1-hydroxyethyl)-7-oxo-3-(tetrahydro-2-furanyl)-4-thia-1-azabicyclo[3.2.0]hept-2-ene-2-carboxylic acid (5-methyl-2-oxo-1,3-dioxol-4-yl)methyl ester]
[1]; sample 1: Faropenem Daloxate alone, 0.1% by weight in water
  average bitter intensity (scale 1 to 5): 5

## COc1ccc(OC(C)C(=O)[O-])cc1.[Na+] (stereo not shown) [Lactisol, 2(-4-Methoxyphenoxy)propionic acid sodium salt]
[3]
  bitter-reducing effect: weak bitter-reducing effect
